“Also recorded” adds a separate entry of the source. Like-named read-outs stand apart in the source and are kept apart here.
Assays:
[1] = test system: Neuraminidase from Clostridium perfringens (bacterial neuraminidase); format: binding
[2] = target: Neuraminidase from Clostridium perfringens (C. welchii) (EC 3.2.1.18); format: biochemical; settings: for IC50: pH 5.0, 37 °C, read-out: IC50, bacterial neuraminidase
[3] = target: Neuraminidase from Clostridium perfringens (bacterial neuraminidase); format: biochemical; settings: for Ki: read-out: Ki (inhibition constant); for Kik/Kiv: Yang's method
[4] = concentration that caused 50% enzyme activity loss, three repeats
[5] = Lineweaver–Burk and Dixon plots

| Molecule | KA (binding constant) ([1]; fluorescence quenching, pH 5.0) [L/mol] | IC50 [2, 4] [µM] | KSV (Stern–Volmer constant) ([1]; fluorescence quenching, pH 5.0) [L/mol] | Ki ([3]; Dixon plots) [µM] | Kinetic Mode [3, 5] | also measured |
| --- | --- | --- | --- | --- | --- | --- |
| O=c1cc(-c2ccc(O)cc2)oc2cc(O)cc(O)c12 [Apigenin, apigenin, reference compound] | 514200 | 108 ± 1.8 | – | – | – | – |
| CC(C)=CCc1cc(-c2cc(=O)c3c(O)cc(O)c(CC=C(C)C)c3o2)cc(O)c1O [Compound 1, epimedokoreanin B] | 966600 | 0.17 ± 0.02 | 411040 | 0.15 | Noncompetitive | times more effective than luteolin (mother skeleton) ([2]; ratio of IC50 values): 500 times; Kinetic Mode ([3]; Lineweaver–Burk and Dixon plots, listed as compound 1): noncompetitive inhibition; also recorded: noncompetitive behavior; Kik/Kiv ([3]; [I] 0.12 µM): 16.0415; Kik/Kiv ([3]; [I] 0.24 µM): 6.6846; Kik/Kiv ([3]; [I] 0.48 µM): 7.7610; reversibility of inhibition ([3]; initial velocity versus enzyme concentration plots): reversible inhibitor |
| CC(C)=CCc1c(O)cc(O)c2c1OC(c1ccc(O)cc1)C(O)C2=O (stereo not shown) [Compound 2, 8-(γ,γ-dimethylallyl)-5,7,4′-trihydroxydihydroflavonol] | 792300 | 0.68 ± 0.03 | 236360 | 0.73 | Noncompetitive | times more potent in comparison with dihydrokaempferol ([2]; ratio of IC50 values): 700 times |
| CC(C)=CCc1cc(-c2cc(=O)c3c(O)cc(O)c(CC=C(C)C)c3o2)ccc1O [Compound 3, 5,7,4′-trihydroxy-8,3′-diprenyl flavone] | 760400 | 12.6 ± 0.2 | 134420 | 12.2 | Noncompetitive | – |
| COc1ccc(-c2oc3c(CC=C(C)C)c(O[C@@H]4O[C@H](CO)[C@@H](O)[C@H](O)[C@H]4O)cc(O)c3c(=O)c2O[C@@H]2O[C@@H](C)[C@H](O)[C@@H](O)[C@H]2O)cc1 [Compound 5, icariin] | 584400 | 57.8 ± 1.1 | 60400 | 36.8 | mixed type inhibitor; also recorded: mixed-type behavior; also recorded: Mixed type I | Kik/Kiv ([3]; [I] 35.0 µM): 3.6688; Kik/Kiv ([3]; [I] 70.0 µM): 2.3384; Kik/Kiv ([3]; [I] 140.0 µM): 2.0207 |
| COc1ccc(-c2oc3c(CC=C(C)C)c(O)cc(O)c3c(=O)c2O[C@@H]2O[C@@H](C)[C@H](O)[C@@H](O)[C@H]2O[C@@H]2OC[C@@H](O)[C@H](O)[C@H]2O)cc1 [Compound 6, sagittatoside B] | 505700 | 106 ± 3.2 | 56080 | 103 | Noncompetitive | – |
| COc1ccc(-c2oc3c(c(O)cc4oc(C(C)(C)OC)cc43)c(=O)c2OC2OC(C)C(O)C(O)C2O)cc1 [Compound 7, 5-hydroxy-2-(4-methoxyphenyl)-8-(2-methoxypropan-2-yl)-3-(((2S,3R,4R,5R,6S)-3,4,5-trihydroxy-6-methyltetra-hydro-2H-pyran-2-yl)oxy)-4H-furo[2-3-h]chromen-4-one] | 785100 | 2.9 ± 0.7 | 216560 | 2.73 | Noncompetitive | times more effective compared with compound 8 ([2]; methoxy group (7) versus hydroxyl group (8)): 5 times |
| COc1ccc(-c2oc3c(c(O)cc4oc(C(C)(C)O)cc43)c(=O)c2O[C@@H]2O[C@@H](C)[C@H](O)[C@@H](O)[C@H]2O)cc1 [Compound 8, 5-hydroxy-8-(2-hydroxypropan-2-yl)-2-(4-methoxyphenyl)-3-(((2S,3R,4R,5R,6S)-3,4,5-trihydroxy-6-methyl-tetrahydro-2H-pyran-2-yl)oxy)-4H-furo[2,3-h]chromen-4-one] | 741600 | 16.7 ± 0.9 | 111200 | 16.4 | Noncompetitive | – |
| O=C1c2c(O)cc(O)cc2O[C@H](c2ccc(O)cc2)[C@H]1O [Dihydrokaempferol, dihydrokaempferol, reference compound] | 299800 | 500.4 ± 3.8 | 24790 | – | – | fluorescence quenching (FQ) effect [1]: insignificant |
| O=c1cc(-c2ccc(O)c(O)c2)oc2cc(O)cc(O)c12 [Luteolin, luteolin, reference compound] | 557800 | 85.6 ± 2.1 | 56140 | – | – | – |
| O=c1c(O)c(-c2ccc(O)c(O)c2)oc2cc(O)cc(O)c12 [Quercetin, reference compound] | – | 20.2 ± 0.8 | – | – | – | – |
| icariside II [Compound 4] | – | – | – | – | – | KA (binding constant) ([1]; pH 5): 733500 L/mol; KSV (Stern–Volmer constant) ([1]; pH 5): 95690 L/mol; IC50 [2]: 20 ± 0.5 µM; Kinetic Mode [3]: Noncompetitive (21.1 ± 0.8); Ki [3]: 21.1 µM |

From article PMC6359343 (Molecules, 2019)
